# Reference: patent US20060188566A1, “Nanoparticulate formulations of docetaxel and analogues thereof” (Elan Pharma International Limited, priority 2005, published 2006)
# Experiments:
# [1] = Particle size of unmilled (conventional, non-nanoparticulate) docetaxel; format: physicochemical
# Description: Unmilled trihydrate docetaxel has a mean particle size of 61,610 nm, with a D50 of 51,060 nm and a D90 of 119,690 nm.
# mice = details: mouse, in vivo, iv
# Description: The purpose of this experiment was to determine the maximum tolerated dose of a nanoparticulate docetaxel formulation.
# To evaluate and characterize the acute toxicity of nanoparticulate docetaxel formulations, two nanoparticulate dispersions were utilized.
# Both nanoparticulate docetaxel formulations were administered intravenously at various doses to mice.
# The commercially available non-nanoparticulate docetaxel product, TAXOTERE®, was also tested in parallel with the nanoparticulate docetaxel formulations.
# [2] = system: COX-2 expression in human monocytes; details: human monocytes / human cells; cited from earlier work
# [3] = system: COX-2 expression in murine cells; details: cited from earlier work
# [4] = phase I trial; cited from earlier work
# microtubules = details: compared with docetaxel; cited from earlier work
# [5] = cited from earlier work
# [6] = system: plasma proteins, primarily albumin, α1-acid glycoproteins, and lipoproteins; details: in vitro; cited from earlier work
# [7] = cited from earlier work; remark: listed apart in the source
# [8] = IV administration of a 100-mg/m^2 dose, SD=0.8
# [9] = intravenous doses of 70 mg/m^2 to 115 mg/m^2, 3-compartment model, TAXOTERE®
compound,measurement,setting,value
"CC(=O)O[C@@]12CO[C@@H]1C[C@H](O)[C@@]1(C)C(=O)[C@H](O)C3=C(C)[C@@H](OC(=O)[C@H](O)[C@@H](NC(=O)OC(C)(C)C)c4ccccc4)C[C@@](O)([C@@H](OC(=O)c4ccccc4)[C@H]21)C3(C)C [unmilled docetaxel (anhydrous), docetaxel]",D50,[1],"175,530 nm"
same,D90,[1],"435,810 nm"
same,mean particle size,[1],"212,060 nm"
TAXOTERE®,maximum tolerated dose (MD),mice,40 mg/kg
paclitaxel,COX-2 expression induction,[2],paclitaxel-induced COX-2 expression
same,COX-2 expression induction,[3],paclitaxel-induced COX-2 expression
same,pharmacokinetic profile (linearity),[4],nonlinear pharmacokinetics
"CC(=O)O[C@@]12CO[C@@H]1C[C@H](O)[C@@]1(C)C(=O)[C@H](O)C3=C(C)[C@@H](OC(=O)[C@H](O)[C@@H](NC(=O)OC(C)(C)C)c4ccccc4)C[C@@](O)([C@@H](OC(=O)c4ccccc4)[C@H]21)C3(C)C [Unmilled trihydrate docetaxel, docetaxel]",D50,[1],"51,060 nm"
same,D90,[1],"119,690 nm"
same,mean particle size,[1],"61,610 nm"
CC(=O)OC12COC1CC(O)C1(C)C(=O)C(O)C3=C(C)C(OC(=O)C(O)C(NC(=O)OC(C)(C)C)c4ccccc4)CC(O)(C(OC(=O)C4CCCCC4)C21)C3(C)C (stereo not drawn) [2-(hexahydro)docetaxel],inhibitory activity for microtubule disassembly,microtubules,strong inhibitory activity for microtubule disassembly equivalent to docetaxel
"CC(=O)O[C@@]12CO[C@@H]1C[C@H](O)[C@@]1(C)C(=O)[C@H](O)C3=C(C)[C@@H](OC(=O)[C@H](O)[C@@H](NC(=O)OC(C)(C)C)c4ccccc4)C[C@@](O)([C@@H](OC(=O)c4ccccc4)[C@H]21)C3(C)C [docetaxel, (2R, 3S)-N-carboxy-3-phenylisoserine, N-tert-butyl ester, 13-ester with 5β-20-epoxy-1, 2α, 4, 7β, 10β, 13α-hexahydroxytax-11-en-9-one 4-acetate 2-benzoate, trihydrate]",AUC,[5]; [8],4600 ng·h/mL
same,mean peak plasma level,[5]; [8],3.7 µg/mL
same,steady-state volume of distribution (mean),"[5]; cancer patients, IV",113 L
same,mean population α half-life,[5]; [9],4 min
same,mean population β half-life,[5]; [9],36 min
same,mean population γ half-life,[5]; [9],666 min
same,bound to plasma proteins,[6],approximately 94%
same,solubility in water (in words),[7],practically insoluble in water
same,COX-2 expression induction,[2],induces COX-2 expression only in human monocytes
CC(=O)OC12COC1CC(O)C1(C)C(=O)C(O)C3=C(C)C(OC(=O)C(O)C(NC(=O)OC(C)(C)C)C4CCCCC4)CC(O)(C(OC(=O)c4ccccc4)C21)C3(C)C (stereo not drawn) [3′-dephenyl-3′-cyclohexyldocetaxel],inhibitory activity for microtubule disassembly,microtubules,strong inhibitory activity for microtubule disassembly equivalent to docetaxel
